Source: PubChem BioAssay (NCI)
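Five compound concentrations were applied to cells in 96-well plates for 48 hours; endpoints were derived by simple linear interpolation of the resulting dose-response curve. GI50 is the concentration that inhibits growth by half. TGI: concentration producing complete growth inhibition.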

What was measured:
Experiment in all cases: NCI-60 cell line screen, 48 h
HT29 colon = test system: HT29 colon
IGROV1 ovarian = test system: IGROV1 ovarian
OVCAR-3 ovarian = test system: OVCAR-3 ovarian
A549 NSCLC = test system: A549 NSCLC
NCI-H23 lung = test system: NCI-H23 lung
MOLT-4 leukemia = test system: MOLT-4 leukemia
HOP-92 NSCLC = test system: HOP-92 NSCLC
OVCAR-8 ovarian = test system: OVCAR-8 ovarian
KM20L2 colon = test system: KM20L2 colon

Compound | GI50 (HT29 colon) [nM] | TGI (HT29 colon) [µM] | GI50 (IGROV1 ovarian) [nM] | TGI (IGROV1 ovarian) [µM] | GI50 (OVCAR-3 ovarian) [nM] | TGI (OVCAR-3 ovarian) [µM] | GI50 (A549 NSCLC) [µM] | TGI (A549 NSCLC) [µM] | GI50 (NCI-H23 lung) [nM] | TGI (NCI-H23 lung) [µM] | GI50 (MOLT-4 leukemia) [nM] | TGI (MOLT-4 leukemia) [µM] | GI50 (HOP-92 NSCLC) [µM] | TGI (HOP-92 NSCLC) [µM] | GI50 (OVCAR-8 ovarian) [nM] | TGI (OVCAR-8 ovarian) [µM] | TGI (KM20L2 colon) [µM] | GI50 (KM20L2 colon) [µM]
Clc1cc2c(nn1)Nc1ccccc1S2 | > 100000 | > 100 | > 100000 | > 100 | > 100000 | > 100 | > 100 | > 100 | > 100000 | > 100 | > 100000 | > 100 | > 100 | > 100 | > 100000 | > 100 | – | –
Cc1ccc(NC(=O)CC/C(CC(=O)C(C)(C)C)=N/NC(=O)C[N+](C)(C)C)cc1C | – | > 100 | – | > 100 | – | > 100 | – | 59.4 | – | > 100 | – | > 100 | – | – | – | > 100 | > 100 | –
CN1CC[C@]2(c3cccc(O)c3)CC(=O)/C(=C/c3ccccc3)[C@H]1C2 | 3590 | 12.4 | 3380 | 12.6 | 2640 | 6.95 | – | 11.1 | 2870 | 10.8 | – | 6.96 | – | 7.92 | – | 9.46 | – | –
O=C1C=CC(=Nc2ccccc2)c2ccccc21 | – | 34.3 | – | 23.2 | – | 7.23 | – | 31 | – | 13.1 | – | 36.2 | – | 28.4 | – | 24.6 | – | –
CCOc1ccc2c(C)cc(=O)oc2c1 | – | > 100 | – | > 100 | – | > 100 | – | > 100 | – | > 100 | – | > 100 | – | > 100 | – | > 100 | – | –
CSCC[C@H](NC(=O)[C@H](CC(C)C)NC(=O)[C@@H](Cc1ccccc1)NC(=O)CNC(=O)[C@@H](NC(=O)[C@H](C)NC(=O)[C@H](Cc1c[nH]c2ccccc12)NC(=O)[C@H](CCC(N)=O)NC(=O)[C@H](N)CC(N)=O)C(C)C)C(N)=O | – | > 12.5 | – | > 12.5 | – | > 12.5 | – | > 12.5 | – | > 12.5 | – | > 12.5 | – | > 12.5 | – | > 12.5 | – | –
O=C1CCCCC=C1C[N+](=O)[O-] | 19300 | 50.3 | 33000 | > 100 | 23900 | 69.1 | 38.2 | > 100 | 27500 | 69.9 | 11900 | 31 | 29 | 51.9 | 26600 | > 100 | – | –
c1ccc(Nc2nc(-c3ccccn3)cs2)nc1 | 603 | 21.1 | 464 | 5.8 | 273 | 19.6 | 0.623 | > 35 | 972 | > 32.7 | 301 | > 27.2 | 2.49 | > 56.5 | 395 | > 38.5 | – | –
Cc1[nH]c(C(=O)Nc2ccccc2OC2CCNCC2)c(Cl)c1Cl | 875 | 1.71 | 856 | 1.73 | 931 | 1.68 | 1.22 | 3.35 | 1520 | 5.64 | 1310 | 3.73 | 0.702 | 1.79 | 1070 | 2.4 | – | –
O=S(=O)(c1ccc(Br)cc1)N1CCN(S(=O)(=O)c2ccc(Br)cc2)CC1 | – | > 100 | – | > 100 | – | > 100 | – | > 100 | – | > 100 | – | 26.7 | – | > 100 | – | > 100 | – | –
COc1cc(/C=C2\Oc3cc(OCCCN4CCCC4)ccc3C2=O)cc(OC)c1 | 2800 | 8.69 | 4400 | 16.9 | 2740 | 8.17 | 3.44 | 14.8 | 4750 | 18.7 | 2590 | 9.19 | 3.2 | 16.8 | 3710 | 15.4 | – | –
CCC(CCC(C)C1CCC2C3CC=C4CC(OC5OC(CO)C(O)C(O)C5O)CCC4(C)C3CCC12C)C(C)C (configuration not stated) | – | > 100 | – | > 100 | – | > 100 | – | > 100 | – | > 100 | – | > 100 | – | > 100 | – | > 100 | – | –
C=C1CC[C@@H]2[C@](C)(COC(C)=O)[C@H](OC(C)=O)CC[C@@]2(C)[C@@H]1CC(Nc1ccc(S(=O)(=O)Nc2cc(C)on2)cc1)C1=CCOC1=O (some centres not stated) | 1580 | 3.09 | 2360 | 6.51 | 1660 | 3.09 | 4.75 | 15.4 | 2310 | 5.9 | 2120 | 6.39 | 3.07 | 8 | 1880 | 4.3 | – | –
COc1cc2nc(-c3ccc(Cl)cc3)cc(OCCCN3CCCC3)c2cc1OC | 454 | 4.17 | 881 | 11.8 | 2710 | 13.1 | 1.52 | 12.4 | 2450 | 12.1 | 1500 | 3.47 | 0.85 | 5.43 | 1190 | 16.1 | – | –
CC(=O)[CH-]C(=O)c1ccccc1.CC(=O)[CH-]C(=O)c1ccccc1.CC1(C)OCC(C2OC3OC(C)(C)OC3C2[O-])O1.CC1(C)OCC(C2OC3OC(C)(C)OC3C2[O-])O1.[Ti+4] (configuration not stated) | 16300 | 40.6 | 21600 | 48.8 | – | – | 15.3 | 38 | 18200 | 38.3 | 7390 | > 100 | 6.84 | 22.8 | 13900 | 34.3 | > 100 | 29.6
COc1cccc(-n2cc(-c3nc(Nc4cc(C)[nH]n4)c4ccccc4n3)nn2)c1 | 7050 | 14.5 | 1690 | 10.1 | 5710 | 12.6 | 2.33 | 11.4 | 6280 | 22.4 | 2010 | 9.8 | 1.67 | 9.53 | 2880 | 11.7 | – | –
NS(=O)(=O)c1ccc(NCc2cnc3ccccc3n2)cc1 | – | > 100 | – | > 100 | – | > 100 | – | > 100 | – | > 100 | – | > 100 | – | > 100 | – | > 100 | – | –
